# Assay results: US20080139564A1, “SUBSTITUTED PHENYL PROPYL AMINES AS HISTAMINE H3 RECEPTOR AND SEROTONIN TRANSPORTER MODULATORS” (priority 2006, published 2008)
# What was measured:
# human H3 receptor [1] = target: T1, human H3 receptor (Homo sapiens, UniProt Q9Y5N1); experiment: H3 receptor binding (N-[3H]-α-methylhistamine displacement, SK-N-MC cell membranes); conditions: 0.8 nM N-[3H]-α-methylhistamine, 60 min at 25° C.
# T1 construct: expressed in transfected cells
# Description: Binding of compounds to the cloned human H3 receptor, stably expressed in SK-N-MC cells, was performed (Lovenberg, T. W. et al. J. Pharmacol. Exp. Ther. 2000, 293, 771-778). Briefly, cell pellets from SK-N-MC cells expressing the human H3 receptor were homogenized in 50 mM Tris-HCl/5 mM EDTA and re-centrifuged at 30,000 g for 30 min. Pellets were re-homogenized in 50 mM Tris/5 mM EDTA (pH 7.4). Membranes were incubated with 0.8 nM N—[^3H]-α-methylhistamine plus/minus test compounds for 60 min at 25° C. and harvested by rapid filtration over GF/C glass fiber filters (pretreated with 0.3% polyethylenimine) followed by four washes with ice-cold buffer. Nonspecific binding was defined in the presence of 10 μM histamine.
# human H3 receptor [2] = target: T1, human H3 receptor; experiment: Cyclic AMP accumulation (β-galactosidase reporter in SK-N-MC cells); type: cell-based; conditions: read-out: pA2 (converted)
# Description: Sublines of SK-N-MC cells were created that expressed a reporter construct and the human H3 receptor. The reporter gene (β-galactosidase) is under the control of multiple cyclic AMP responsive elements. In 96-well plates, histamine was added directly to the cell media followed 5 min later by an addition of forskolin (5 μM final concentration). When appropriate, antagonists were added 10 min prior to agonist addition. After a 6-h incubation at 37° C., the media was aspirated and the cells washed with 200 μL of phosphate-buffered saline followed by a second aspiration. Cells were lysed with 25 μL 0.1× assay buffer (10 mM Na-phosphate, pH 8, 0.2 mM MgSO4, 0.01 mM MnCl2) and incubated at rt for 10 min. Cells were then incubated for 10 min with 100 μL of 1× assay buffer containing 0.5% Triton and 40 mM β-mercaptoethanol. Color was developed using 25 μL of 1 mg/mL substrate solution (chlorophenolred β-D galactopyranoside; Roche Molecular Biochemicals, Indianapolis, Ind.). Color was quantitated on a microplate reader at absorbance 570 nm. The pA2 values were calculated by Schild regression analysis of the pEC50 values.
# Rat SERT = target: T2, Rat SERT (Rattus norvegicus, UniProt P31652); experiment: Rat brain SERT binding ([3H]-Citalopram displacement, rat brain membranes); conditions: 0.6 nM [3H]-Citalopram, 60 min at 25° C.
# T2 construct: A rat brain without cerebellum (Zivic Laboratories, Inc.—Pittsburgh, Pa.) was homogenized; tissue Zivic Laboratories, Inc; host or cells: rat brain without cerebellum
# Description: A rat brain without cerebellum (Zivic Laboratories, Inc.—Pittsburgh, Pa.) was homogenized in a 52.6 mM Tris pH 8/126.4 mM NaCl/5.26 mM KCl mixture and centrifuged at 1,000 rpm for 5 min. The supernatant was removed and re-centrifuged at 15,000 rpm for 30 min. Pellets were re-homogenized in a 52.6 mM Tris pH8/126.4 mM NaCl/5.26 mM KCl mixture. Membranes were incubated with 0.6 nM [^3H]-Citalopram plus/minus test compounds for 60 min at 25° C. and harvested by rapid filtration over GF/C glass fiber filters (pretreated with 0.3% polyethylenimine) followed by four washes with ice-cold buffer. Nonspecific binding was defined in the presence of 100 μM fluoxetine.
# human SERT = target: T3, human SERT (Homo sapiens, UniProt P31645); experiment: Human SERT binding (3H-citalopram displacement, HEK293 membranes); conditions: 3H-citalopram 3.1 nM, rt for 1 h
# T3 construct: expressed in transfected cells; host or cells: HEK293
# Description: Homogenized HEK293 (Human Embryonic Kidney) membranes expressing the human SERT were incubated with ^3H-citalopram (SERT) at rt for 1 h in 50 mM Tris, 120 mM NaCl, 5 mM KCl (pH 7.4). Nonspecific binding was determined in the presence of 10 μM fluoxetine for the SERT. The membranes were washed and the radioactivity was counted as above. Calculations for Ki at the SERT were based on a Kd value for ^3H-citalopram and a ligand concentration of 3.1 nM.
# T3 sequence (P31645 whole entry): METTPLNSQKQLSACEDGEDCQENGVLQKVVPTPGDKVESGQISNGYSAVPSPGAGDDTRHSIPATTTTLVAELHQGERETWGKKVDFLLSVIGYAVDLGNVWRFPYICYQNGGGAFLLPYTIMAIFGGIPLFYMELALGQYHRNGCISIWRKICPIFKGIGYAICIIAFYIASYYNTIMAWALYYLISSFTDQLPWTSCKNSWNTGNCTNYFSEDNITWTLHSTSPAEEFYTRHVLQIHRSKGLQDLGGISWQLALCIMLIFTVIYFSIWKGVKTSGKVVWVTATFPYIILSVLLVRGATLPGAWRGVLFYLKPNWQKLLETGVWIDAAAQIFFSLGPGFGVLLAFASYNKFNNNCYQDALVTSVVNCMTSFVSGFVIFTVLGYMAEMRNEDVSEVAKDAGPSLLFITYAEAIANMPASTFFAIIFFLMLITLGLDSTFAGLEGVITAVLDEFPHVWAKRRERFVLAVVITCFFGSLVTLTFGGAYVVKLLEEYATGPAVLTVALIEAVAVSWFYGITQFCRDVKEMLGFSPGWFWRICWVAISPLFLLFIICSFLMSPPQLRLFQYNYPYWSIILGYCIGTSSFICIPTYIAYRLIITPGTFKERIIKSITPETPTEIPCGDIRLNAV
# T1 sequence (Q9Y5N1 whole entry): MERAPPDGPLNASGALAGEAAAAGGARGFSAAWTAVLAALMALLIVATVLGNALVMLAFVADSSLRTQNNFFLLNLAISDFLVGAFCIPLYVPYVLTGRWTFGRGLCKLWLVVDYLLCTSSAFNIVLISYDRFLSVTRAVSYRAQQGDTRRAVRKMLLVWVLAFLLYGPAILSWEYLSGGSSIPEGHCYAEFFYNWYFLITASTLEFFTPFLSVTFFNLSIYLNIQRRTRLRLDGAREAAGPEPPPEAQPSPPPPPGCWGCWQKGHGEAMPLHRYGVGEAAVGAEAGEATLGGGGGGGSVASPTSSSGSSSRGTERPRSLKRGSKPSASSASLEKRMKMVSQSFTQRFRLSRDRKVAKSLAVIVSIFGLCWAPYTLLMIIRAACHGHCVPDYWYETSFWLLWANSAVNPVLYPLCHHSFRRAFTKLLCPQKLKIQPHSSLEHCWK
# T2 sequence (P31652 whole entry): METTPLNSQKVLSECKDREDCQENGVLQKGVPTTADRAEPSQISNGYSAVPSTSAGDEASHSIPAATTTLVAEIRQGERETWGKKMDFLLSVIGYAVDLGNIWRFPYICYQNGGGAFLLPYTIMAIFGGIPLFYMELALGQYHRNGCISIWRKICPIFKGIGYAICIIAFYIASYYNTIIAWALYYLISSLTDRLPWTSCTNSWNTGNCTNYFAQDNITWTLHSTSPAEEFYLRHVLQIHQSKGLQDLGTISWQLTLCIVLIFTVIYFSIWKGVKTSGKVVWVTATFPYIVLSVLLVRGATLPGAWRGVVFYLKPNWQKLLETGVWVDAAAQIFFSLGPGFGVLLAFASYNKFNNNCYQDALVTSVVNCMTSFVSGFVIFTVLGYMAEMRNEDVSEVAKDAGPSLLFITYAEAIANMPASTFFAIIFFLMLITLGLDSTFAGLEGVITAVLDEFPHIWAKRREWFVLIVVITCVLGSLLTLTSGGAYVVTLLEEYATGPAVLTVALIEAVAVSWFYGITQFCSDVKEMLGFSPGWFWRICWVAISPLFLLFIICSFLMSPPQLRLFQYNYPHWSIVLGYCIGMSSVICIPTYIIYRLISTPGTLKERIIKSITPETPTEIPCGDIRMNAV
Ki (human H3 receptor [1]) [nM],Kb (human H3 receptor [2]) [nM],Ki (Rat SERT) [nM],Ki (human SERT) [nM],SMILES
1,0.977,44,–,"CN(C)CCC(Oc1ccc2[nH]ccc2c1)c1ccc(OCCCN2CCCCC2)cc1 (centres unmarked) [Example 19, {3-(1H-Indol-5-yloxy)-3-[4-(3-piperidin-1-yl-propoxy)-phenyl]-propyl}-dimethyl-amine]"
2,1.48,65,–,"CC(C)N1CCC(Oc2ccc(OC(CCN(C)C)c3ccc(C(F)(F)F)cc3)cc2)CC1 (centres unmarked) [Example 45, [3-[4-(1-Isopropyl-piperidin-4-yloxy)-phenoxy]-3-(4-trifluoromethylphenyl)-propyl]-dimethyl-amine]"
5,18.6,37,–,"CCC(CC)N1CCN(Cc2ccc(C(CCN(C)C)Oc3ccc(C(F)(F)F)cc3)cc2)CC1 (centres unmarked) [Example 54, [3-{4-[4-(1-Ethyl-propyl)-piperazin-1-ylmethyl]-phenyl}-3-(4-trifluoromethyl-phenoxy)-propyl]-dimethyl-amine]"
0.9,–,8,21,"CN(C)CCC(Oc1ccccc1Cl)c1ccc(OCCCN2CCCCC2)cc1 (centres unmarked) [Example 17, {3-(2-Chloro-phenoxy)-3-[4-(3-piperidin-1-yl-propoxy)-phenyl]-propyl}-dimethyl-amine]"
1,–,1.3,46,"CN(C)CCC(Oc1ccc(F)cc1)c1ccc(OCCCN2CCCCC2)cc1 (centres unmarked) [Example 10, {3-(4-Fluoro-phenoxy)-3-[4-(3-piperidin-1-yl-propoxy)-phenyl]-propyl}-dimethyl-amine]"
8,2.45,102,–,"CCC(CC)N1CCN(C(=O)c2ccc(C(CCN(C)C)Oc3ccc(C(F)(F)F)cc3)cc2)CC1 (centres unmarked) [Example 53, {4-[3-Dimethylamino-1-(4-trifluoromethyl-phenoxy)-propyl]-phenyl}-[4-(1-ethyl-propyl)-piperazin-1-yl]-methanone]"
0.8,–,7,21,"NCCC(Oc1ccccc1)c1ccc(OCCCN2CCCCC2)cc1 (centres unmarked) [Example 68, 3-Phenoxy-3-[4-(3-piperidin-1-yl-propoxy)-phenyl]-propylamine]"
0.9,–,5,25,"CNCCC(Oc1ccccc1)c1ccc(OCCCN2CCCCC2)cc1 (centres unmarked) [Example 72, Methyl-{3-phenoxy-3-[4-(3-piperidin-1-yl-propoxy)-phenyl]-propyl}-amine]"
11,–,18,34,"CN(C)CCC(Oc1ccccc1)c1ccc(C#CCCN2CCSCC2)cc1 (centres unmarked) [Example 24, Dimethyl-{3-phenoxy-3-[4-(4-thiomorpholin-4-yl-but-1-ynyl)phenyl]-propyl}-amine]"
19,–,13,37,"CN(C)CCC(Oc1ccccc1)c1ccc(C#CCCN2CCOCC2)cc1 (centres unmarked) [Example 23, Dimethyl-{3-[4-(4-morpholin-4-yl-but-1-ynyl)-phenyl]-3-phenoxy-propyl}-amine]"
3,–,16,199,"CN(C)CCC(Oc1ccccc1)c1cccc(OCCCN2CCCCC2)c1 (centres unmarked) [Example 3, Dimethyl-[3-phenoxy-3-[3-(3-piperidin-1-yl-propoxy)-phenyl]-propyl]-amine]"
2,9.33,27,–,"CC(C)N1CCN(Cc2ccc(C(CCN(C)C)Oc3ccc(C(F)(F)F)cc3)cc2)CC1 (centres unmarked) [Example 55, [3-[4-(4-Isopropyl-piperazin-1-ylmethyl)-phenyl]-3-(4-trifluoromethyl-phenoxy)-propyl]-dimethyl-amine]"
0.6,–,1.5,16,"Cc1ccc(OC(CCN(C)C)c2ccc(OCCCN3CCCCC3)cc2)cc1 (centres unmarked) [Example 6, Dimethyl-{3-[4-(3-piperidin-1-yl-propoxy)-phenyl]-3-p-tolyloxy-propyl}-amine]"
24,17.8,168,–,"CN(C)CCC(Oc1ccc(C#CCCN2CCCCC2)cc1)c1ccc(C(F)(F)F)cc1 (centres unmarked) [Example 60, Dimethyl-[3-[4-(4-piperidin-1-yl-but-1-ynyl)-phenoxy]-3-(4-trifluoromethyl-phenyl)-propyl]-amine]"
0.9,–,1.3,10,"CSc1ccc(OC(CCN(C)C)c2ccc(OCCCN3CCCCC3)cc2)cc1 (centres unmarked) [Example 4, Dimethyl-{3-(4-methylsulfanyl-phenoxy)-3-[4-(3-piperidin-1-yl-propoxy)-phenyl]-propyl}-amine]"
2,0.933,–,–,"CC(C)N1CCN(C(=O)c2ccc(C(CCN(C)C)Oc3ccc(C(F)(F)F)cc3)cc2)CC1 (centres unmarked) [Example 39, {4-[3-Dimethylamino-1-(4-trifluoromethyl-phenoxy)-propyl]-phenyl}-(4-isopropyl-piperazin-1-yl)-methanone]"
7,11.2,30,–,"CN(C)CCC(Oc1ccc(C(F)(F)F)cc1)c1ccc(CN2CCN(C3CCCC3)CC2)cc1 (centres unmarked) [Example 51, [3-[4-(4-Cyclopentyl-piperazin-1-ylmethyl)-phenyl]-3-(4-trifluoromethyl-phenoxy)-propyl]-dimethyl-amine]"
2,1.2,33,–,"CCC(C)N1CCN(C(=O)c2ccc(C(CCN(C)C)Oc3ccc(C(F)(F)F)cc3)cc2)CC1 (centres unmarked) [Example 52, (4-sec-Butyl-piperazin-1-yl)-{4-[3-dimethylamino-1-(4-trifluoromethyl-phenoxy)-propyl]-phenyl}-methanone]"
0.9,–,2,60,"COc1ccc(OC(CCN(C)C)c2ccc(OCCCN3CCCCC3)cc2)cc1 (centres unmarked) [Example 7, {3-(4-Methoxy-phenoxy)-3-[4-(3-piperidin-1-yl-propoxy)-phenyl]-propyl}-dimethyl-amine]"
2,–,16,154,"CN(C)CCC(Oc1ccccc1)c1cccc(C#CCCN2CCCCC2)c1 (centres unmarked) [Example 31, Dimethyl-{3-phenoxy-3-[3-(4-piperidin-1-yl-but-1-ynyl)-phenyl]-propyl}-amine]"
32,–,10,6,"CN(C)CCC(Oc1ccc(C(F)(F)F)cc1)c1ccc(CCCCN2CCOCC2)cc1 (centres unmarked) [Example 35, Dimethyl-[3-[4-(4-morpholin-4-yl-butyl)-phenyl]-3-(4-trifluoromethyl-phenoxy)-propyl]-amine]"
49,–,6,22,"CC(C)N1CCN(CCC#Cc2ccc(C(CCN(C)C)Oc3ccccc3)cc2)CC1 (centres unmarked) [Example 22, (3-{4-[4-(4-Isopropyl-piperazin-1-yl)-but-1-ynyl]-phenyl}-3-phenoxy-propyl)-dimethyl-amine]"
1.7,–,5,7,"CN(C)CCC(Oc1ccc(Br)cc1)c1ccc(OCCCN2CCCCC2)cc1 (centres unmarked) [Example 11, {3-(4-Bromo-phenoxy)-3-[4-(3-piperidin-1-yl-propoxy)-phenyl]-propyl}-dimethyl-amine]"
3,1.48,53,–,"CN(C)CCC(Oc1ccc(C(F)(F)F)cc1)c1ccc(C(=O)N2CCN(C3CCCC3)CC2)cc1 (centres unmarked) [Example 50, (4-Cyclopentyl-piperazin-1-yl)-{4-[3-dimethylamino-1-(4-trifluoromethyl-phenoxy)-propyl]-phenyl}-methanone]"
0.2,–,8,158,"CN(C)CCC(Oc1ccc(C#N)cc1)c1ccc(OCCCN2CCCCC2)cc1 (centres unmarked) [Example 5, 4-{3-Dimethylamino-1-[4-(3-piperidin-1-yl-propoxy)-phenyl]-propoxy}-benzonitrile]"
